The structures appear in SMILES notation.

Test [1] deals with carrageenin-induced paw edema. Put plainly: Anti-inflammatory activity: inhibition of carrageenin-induced paw edema in rats. The settings on record: po; 100 mg/kg p.o.; rat, 3 hours after carrageenin; read-out: Percent inhibition of edema. Type of test: in vivo, rat (S.D. strain, male). As to the method:
(1) Anti-inflammatory activity:inhibition of carrageenin-induced paw edema in rats The compound was tested for the above activity according to the method of Winter et al. [Proc. Soc. […] One hour after the test compound was orally given to the animal, 0.1 ml of 1% carrageenin solution was subcutaneously injected into the right footpad. The paw volume was measured 3 hours thereafter, and the resulting increase in the volume was calculated based on the volume before the injection of carrageenin solution. The percent inhibition was determined in comparison with the increase in the control group.
For orientation: In the carrageenan paw model, swelling and tenderness develop within hours.

A further test addresses T1, 5-lipoxygenase (Cavia porcellus, UniProt A0A286X958).
T1 construct: endogenous in cells; host or cells: guinea pig peritoneal exudate cells (casein-elicited), intact cell suspension
T1 sequence (A0A286X958 1-674): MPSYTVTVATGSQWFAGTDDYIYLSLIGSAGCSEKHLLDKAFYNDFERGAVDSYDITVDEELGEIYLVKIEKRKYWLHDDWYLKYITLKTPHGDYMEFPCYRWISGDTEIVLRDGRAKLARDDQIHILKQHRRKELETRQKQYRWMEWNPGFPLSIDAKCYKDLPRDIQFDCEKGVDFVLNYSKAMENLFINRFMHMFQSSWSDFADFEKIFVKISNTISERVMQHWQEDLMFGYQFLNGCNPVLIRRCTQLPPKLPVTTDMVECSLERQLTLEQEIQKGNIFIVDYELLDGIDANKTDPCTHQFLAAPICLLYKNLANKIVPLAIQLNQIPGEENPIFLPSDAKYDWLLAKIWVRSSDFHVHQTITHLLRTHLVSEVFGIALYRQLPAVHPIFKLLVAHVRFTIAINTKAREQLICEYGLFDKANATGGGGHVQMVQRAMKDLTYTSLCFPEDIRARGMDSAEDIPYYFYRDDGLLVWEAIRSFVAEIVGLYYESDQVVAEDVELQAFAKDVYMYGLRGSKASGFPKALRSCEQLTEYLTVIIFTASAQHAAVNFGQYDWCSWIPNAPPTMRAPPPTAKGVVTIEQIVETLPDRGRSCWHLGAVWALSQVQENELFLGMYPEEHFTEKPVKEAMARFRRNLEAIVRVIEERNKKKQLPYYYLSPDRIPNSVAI
Kind of test: 5-Lipoxygenase inhibitory activity (5-HETE formation in guinea pig peritoneal exudate cells). The format is cell-based. The settings on record: read-out: Percent inhibition of 5-lipoxygenase. As to the method: (J. Biol. Chem., 256, 4156 (1981)) and to the method of Ochi et al. (J. Biol. Chem., 258, 5754 (1983). More specifically, 2% casein was intraperitoneally given to a guinea pig, which was bleeded to death 14 to 16 hours thereafter. The peritoneal cavity was washed to collect exudate cells, which were suspended in a phosphate buffer containing 1 mM CaCl2 and 5.5 mM glucose to a concentration of 2.5×10^7 cells/ml. The cell suspension was incubated at 30° C. for 2 minutes. The test compound was then added to the cell suspension, followed by incubation for 2 minutes. With addition of 10 μM of A23187 first and then 10 μM of ^14 C-arachidonic acid to the resulting suspension. Then, the suspension was incubated for 3 minutes. […] The arachidonic acid, 5(S)-hydroxy-6,8,11,14-eicosatetraenoic acid (5-HETE) and other portions were thereafter scraped off, and ^14 C was counted by a scintillator.

As a reminder, the inhibition is the share of the control response that was lost under treatment. On to `COc1ccc(Nc2cc(C(C)(C)C)c(O)c(C(C)(C)C)c2)cc1` [Compound 7], for which, in test [1], the inhibition in vivo at 100 mg/kg was found to be 41%. At 5-lipoxygenase, the inhibition at 10 µM is 49%.

With `Cc1cc(Nc2ccccc2)c(C)c(C)c1O` [Compound 79, 2,3,6-trimethyl-4-phenylaminophenol], in test [1], the inhibition in vivo at 100 mg/kg was 47%. At 5-lipoxygenase, the inhibition at 1 µM was found to be 87% and the inhibition at 10 µM turned out to be 93%.

`CC(C)(C)c1cc(Nc2ccc(N)cc2)cc(C(C)(C)C)c1O` [Compound 14]: the inhibition in vivo at 100 mg/kg in test [1] is 42%. In addition, at 5-lipoxygenase, the inhibition at 1 µM is 15% and the inhibition at 10 µM was 57%.

Take `CC(C)(C)c1cc(Nc2ccccc2CO)cc(C(C)(C)C)c1O` [Compound 32, 2,6-di-tert-butyl-4-(2-hydroxymethylphenylamino)phenol]: the inhibition in vivo at 100 mg/kg in test [1] turned out to be 74%. Further, on 5-lipoxygenase, the inhibition at 1 µM is 34% and the inhibition at 10 µM amounted to 63%.

Turning to `CC(C)(C)c1cc(Nc2ccc(F)cc2)cc(C(C)(C)C)c1O` [Compound 1, 2,6-di-tert-butyl-4-(4-fluorophenylamino)phenol], the inhibition in vivo at 100 mg/kg in test [1] is 57%. Besides, at 5-lipoxygenase, the inhibition at 1 µM stood at 24% and the inhibition at 10 µM came to 36%.

These data come from patent publication US4906662A, “Phenol derivatives, their preparation and the use thereof” (Otsuka Pharmaceutical Factory, Inc., priority 1986, dated 1990).
